This passage reports IC50 results from patent publication US20230146395A1, “Substituted Pyrimidines and Uses Thereof” (Verge Analytics, Inc., priority 2020, published 2023).

Usually IC50 stands for the point on the concentration scale where inhibition reaches its midpoint.

Where a name gives a salt, the structure may show the parent alone.

The target of the test is T1, Full length human recombinant PIKFYVE (Homo sapiens, UniProt Q9Y2I7).
T1 construct: Full length human recombinant PIKFYVE; purchased Carna Biosciences (Kobe, Japan); host or cells: baculovirus expression system
T1 sequence (Q9Y2I7 whole entry): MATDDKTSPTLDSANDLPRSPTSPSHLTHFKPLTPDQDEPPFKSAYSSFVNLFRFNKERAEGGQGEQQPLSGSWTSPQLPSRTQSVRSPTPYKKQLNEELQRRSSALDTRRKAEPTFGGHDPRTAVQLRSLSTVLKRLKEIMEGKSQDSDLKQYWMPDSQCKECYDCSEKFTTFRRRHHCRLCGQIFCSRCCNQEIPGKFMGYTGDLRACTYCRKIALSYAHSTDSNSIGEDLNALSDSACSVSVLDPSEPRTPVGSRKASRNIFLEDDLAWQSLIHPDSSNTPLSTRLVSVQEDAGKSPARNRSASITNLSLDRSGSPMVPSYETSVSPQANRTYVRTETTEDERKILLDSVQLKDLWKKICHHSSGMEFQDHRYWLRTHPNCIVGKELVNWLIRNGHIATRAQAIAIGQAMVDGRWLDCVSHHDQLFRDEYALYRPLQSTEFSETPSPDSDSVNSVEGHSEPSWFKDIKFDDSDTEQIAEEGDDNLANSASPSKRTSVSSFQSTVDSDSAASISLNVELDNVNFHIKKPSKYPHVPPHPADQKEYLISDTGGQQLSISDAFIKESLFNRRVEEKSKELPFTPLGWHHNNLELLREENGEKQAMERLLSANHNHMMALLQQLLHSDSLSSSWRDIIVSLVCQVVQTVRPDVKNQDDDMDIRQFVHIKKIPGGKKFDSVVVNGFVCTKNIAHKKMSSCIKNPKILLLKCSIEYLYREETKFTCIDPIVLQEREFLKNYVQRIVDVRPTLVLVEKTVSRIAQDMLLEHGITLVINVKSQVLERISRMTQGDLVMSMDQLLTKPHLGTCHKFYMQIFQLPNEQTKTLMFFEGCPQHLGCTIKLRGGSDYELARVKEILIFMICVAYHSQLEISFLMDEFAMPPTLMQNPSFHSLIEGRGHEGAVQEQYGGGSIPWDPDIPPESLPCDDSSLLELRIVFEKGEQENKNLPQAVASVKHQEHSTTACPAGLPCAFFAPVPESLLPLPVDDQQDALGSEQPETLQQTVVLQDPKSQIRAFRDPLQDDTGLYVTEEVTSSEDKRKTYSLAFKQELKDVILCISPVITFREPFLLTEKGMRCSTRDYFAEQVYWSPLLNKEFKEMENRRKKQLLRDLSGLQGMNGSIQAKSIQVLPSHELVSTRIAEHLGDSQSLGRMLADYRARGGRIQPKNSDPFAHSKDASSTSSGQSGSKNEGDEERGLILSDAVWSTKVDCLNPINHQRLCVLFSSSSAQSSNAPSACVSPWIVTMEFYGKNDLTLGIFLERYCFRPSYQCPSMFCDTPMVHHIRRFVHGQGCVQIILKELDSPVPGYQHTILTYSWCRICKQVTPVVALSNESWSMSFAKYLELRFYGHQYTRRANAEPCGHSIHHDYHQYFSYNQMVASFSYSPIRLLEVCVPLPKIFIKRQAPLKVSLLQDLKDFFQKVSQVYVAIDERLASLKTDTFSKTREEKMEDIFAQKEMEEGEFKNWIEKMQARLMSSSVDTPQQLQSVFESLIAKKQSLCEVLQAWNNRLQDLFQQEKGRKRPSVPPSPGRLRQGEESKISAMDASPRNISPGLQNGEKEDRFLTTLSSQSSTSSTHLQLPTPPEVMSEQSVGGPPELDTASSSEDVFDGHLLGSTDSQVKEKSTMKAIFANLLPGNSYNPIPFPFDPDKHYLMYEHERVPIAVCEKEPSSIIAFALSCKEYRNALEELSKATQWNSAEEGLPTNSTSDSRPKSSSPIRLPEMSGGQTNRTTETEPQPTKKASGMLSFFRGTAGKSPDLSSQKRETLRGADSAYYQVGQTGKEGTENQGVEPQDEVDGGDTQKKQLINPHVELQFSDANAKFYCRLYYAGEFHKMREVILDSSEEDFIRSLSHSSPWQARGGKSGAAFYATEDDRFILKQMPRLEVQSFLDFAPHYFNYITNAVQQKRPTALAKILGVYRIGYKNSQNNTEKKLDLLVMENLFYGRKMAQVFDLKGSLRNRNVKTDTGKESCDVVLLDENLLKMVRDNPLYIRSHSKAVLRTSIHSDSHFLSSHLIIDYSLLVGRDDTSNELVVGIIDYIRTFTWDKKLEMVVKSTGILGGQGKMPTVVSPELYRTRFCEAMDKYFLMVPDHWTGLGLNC
Nature of the test: Inhibition of PIKfyve (microfluidic electrophoresis kinase assay, PI3P/PS substrate). In kind it is biochemical. Conditions: 12 concentrations. On the procedure: Full length human recombinant PIKFYVE expressed in baculovirus expression system as N-terminal GST-fusion protein (265 kDa) was obtained from Carna Biosciences (Kobe, Japan). The kinase substrate was prepared by mixing and sonicating fluorescently-labeled phosphatidylinositol 3-phosphate (PI3P) with phospho-L-serine (PS) at a 1:10 ratio in 50 mM HEPES buffer pH 7.5.
The kinase reactions were assembled in 384-well plates (Greiner) in a total volume of […] as follows. Kinase protein was pre-diluted in an assay buffer comprising 25 mM HEPES, pH 7.5, 1 mM DTT, 2.5 mM MgCl2, and 2.5 mM MnCl2, and 0.005% Triton X-100, and dispensed into a 384-well plate (10 μL per well). Test compounds were serially pre-diluted in DMSO and added to the protein samples by acoustic dispensing (Labcyte Echo). The concentration of DMSO was equalized to 1% in all samples. All test compounds were tested at 12 concentrations. Apilimod was used as a reference compound and was tested in identical manner in each assay plate. Control samples (0%-inhibition, in the absence of inhibitor, DMSO only) and 100%-inhibition (in the absence of enzyme) were assembled in replicates of four and were used to calculate %-inhibition in the presence of compounds. The reactions were initiated by addition of 10 μL of 2×PI3P/PS substrate supplemented with ATP. The final concentration of enzyme was 2 nM, the final concentration of ATP was […], and the final concentration of PI3P/PS substrate was 1 μM (PI3P). The kinase reactions were allowed to proceed for 3 h at room temperature. Following incubation, the reactions were quenched by addition of […] of termination buffer (100 mM HEPES, pH 7.5, 0.01% Triton X-100, 20 mM EDTA). Terminated plates were analyzed on a microfluidic electrophoresis instrument (Caliper LabChip® 3000, Caliper Life Sciences/Perkin Elmer). The change in the relative fluorescence intensity of the PI(3)P substrate and PI(3,5)P product peaks was measured. The activity in each test sample was determined as the product to sum ratio (PSR): P/(S+P), where P is the peak height of the product, and S is the peak height of the substrate. Percent inhibition (Pinh) was determined using the following equation:
Pinh=(PSR0% inh−PSRcompound)/(PSR0% inh−PSR100% inh)*100
in which PSRcompound is the product/sum ratio in the presence of compound, PSR0% inh is the product/sum ratio in the absence of compound, and the PSR100% inh is the product/sum ratio in the absence of the enzyme.
Turning to `CNC(=O)c1cc2nc(Nc3cc(-c4cccs4)n[nH]3)nc(N3CCOCC3)c2o1` [Compound 85, N-methyl-4-morpholino-2-((5-(thiophen-2-yl)-1H-pyrazol-3-yl)amino)furo[3,2-d]pyrimidine-6-carboxamide, hydrogen chloride], the IC50 turned out to be 69 nM. For the molecule `c1ccc(-n2ccc(Nc3nc(N4CCOCC4)c4oc(-c5ccncc5)cc4n3)n2)cc1` [Compound 48, 4-morpholino-N-(1-phenylpyrazol-3-yl)-6-(4-pyridyl)furo[3,2-d]pyrimidin-2-amine, hydrogen chloride], the IC50 turned out to be 32 nM.

Turning to `CNC(=O)c1cc2nc(Nc3cc(-c4ccccc4)[nH]n3)nc(N3CCOCC3)c2o1` [Compound 138, N-methyl-4-morpholino-2-((5-phenyl-1H-pyrazol-3-yl)amino)furo[3,2-d]pyrimidine-6-carboxamide], the IC50 is 33 nM.

Regarding `CNC(=O)c1cc2nc(Nc3cc(C(F)(F)F)n[nH]3)nc(N3CCOCC3)c2o1` [Compound 81, N-methyl-4-morpholino-2-((5-(trifluoromethyl)-1H-pyrazol-3-yl)amino)furo[3,2-d]pyrimidine-6-carboxamide, hydrogen chloride], the half-maximal inhibitory concentration (IC50) was no less than 10000 nM. On to `c1csc(-c2cc(Nc3nc(N4CCOCC4)c4oc(-c5ccncc5)cc4n3)[nH]n2)c1` [Compound 75, 4-morpholino-6-(pyridin-4-yl)-N-(5-(thiophen-2-yl)-1H-pyrazol-3-yl)furo[3,2-d]pyrimidin-2-amine, hydrogen chloride], for which the IC50 came to 1.4 nM. Under `FC(F)(F)Oc1cccc(-c2cc(Nc3nc(N4CCOCC4)c4oc(-c5ccncc5)cc4n3)[nH]n2)c1` [Compound 25, 4-morpholino-6-(4-pyridyl)-N-[5-[3-(trifluoromethoxy)phenyl]-1H-pyrazol-3-yl]furo[3,2-d]pyrimidin-2-amine, hydrogen chloride] stands 956 nM; under `Cc1cccc(-c2ccn(-c3nc(N4CCOCC4)c4oc(-c5cn[nH]c5)cc4n3)n2)c1` [Compound 219, 4-morpholino-2-[3-(m-tolyl)pyrazol-1-yl]-6-(1H-pyrazol-4-yl)furo[3,2-d]pyrimidine], 0.4 nM. Under `Cn1ccc(-c2cc3nc(-n4cc(-c5ccccc5)cn4)nc(N4CCOCC4)c3o2)n1` [Compound 190, 6-(1-methylpyrazol-3-yl)-4-morpholino-2-(4-phenylpyrazol-1-yl)furo[3,2-d]pyrimidine] stands 12.4 nM; under `c1ccn2nc(Nc3nc(N4CCOCC4)c4oc(-c5ccncc5)cc4n3)cc2c1` [Compound 51, 4-morpholino-N-pyrazolo[1,5-a]pyridin-2-yl-6-(4-pyridyl)furo[3,2-d]pyrimidin-2-amine, hydrogen chloride], 88 nM. Under `c1ccc(-c2cnn(-c3nc(N4CCOCC4)c4oc(-c5ccncc5)cc4n3)c2)cc1` [Compound 41, 4-morpholino-2-(4-phenylpyrazol-1-yl)-6-(4-pyridyl)furo[3,2-d]pyrimidine, hydrogen chloride] stands 34 nM.

Take `O=C(NC1COC1)c1cc2nc(-n3ccc(-c4ccccc4)n3)nc(N3CCOCC3)c2o1` [Compound 175, 4-morpholino-N-(oxetan-3-yl)-2-(3-phenylpyrazol-1-yl)furo[3,2-d]pyrimidine-6-carboxamide]: the half-inhibitory concentration (IC50) was 4010 nM. In the case of `Cc1cccc(-c2ccn(-c3nc(N4CCOCC4=O)c4oc(-c5ccccn5)cc4n3)n2)c1` [Compound 148], the IC50 came out at 3860 nM.

In the case of `c1cc(-c2cc3nc(Nc4cc(CC5CC5)n[nH]4)nc(N4CCOCC4)c3o2)ccn1` [Compound 69, N-(3-(cyclopropylmethyl)-1H-pyrazol-5-yl)-4-morpholino-6-(pyridin-4-yl)furo[3,2-d]pyrimidin-2-amine hydrochloride], the half-inhibitory concentration (IC50) came to 338 nM. As to `Cc1cccc(-c2ccn(-c3nc(N4CCOCC4)c4oc(-c5cc(C)no5)cc4n3)n2)c1` [Compound 204, 6-(3-methylisoxazol-5-yl)-4-morpholino-2-(3-(m-tolyl)-1H-pyrazol-1-yl)furo[3,2-d]pyrimidine], the IC50 came to 2.1 nM.

For `c1ccc(-c2cc(Nc3nc(N4CCOCC4)c4occc4n3)n[nH]2)cc1` [Compound 142, 4-morpholino-N-(5-phenyl-1H-pyrazol-3-yl)furo[3,2-d]pyrimidin-2-amine], the IC50 is 145 nM. As for `c1ccc(-c2ccn(-c3nc(N4CCOCC4)c4oc(-c5ccccn5)cc4n3)n2)cc1` [Compound 155, 4-morpholino-2-(3-phenylpyrazol-1-yl)-6-(2-pyridyl)furo[3,2-d]pyrimidine], the figure is 70.6 nM. Consider `COc1cccc(-c2ccn(-c3nc(N4CCOCC4)c4oc(C(=O)NC5CCOCC5)cc4n3)n2)c1` [Compound 221, 2-[3-(3-methoxyphenyl)pyrazol-1-yl]-4-morpholino-N-tetrahydropyran-4-yl-furo[3,2-d]pyrimidine-6-carboxamide], for which the IC50 came out at 3.4 nM. In the case of `Cc1c(-c2ccccn2)oc2c(N3CCOCC3)nc(-n3ccc(-c4ccccc4)n3)nc12` [Compound 179, 7-methyl-4-morpholino-2-(3-phenyl-1H-pyrazol-1-yl)-6-(pyridin-2-yl)furo[3,2-d]pyrimidine], the concentration for half-maximal inhibition (IC50) was no less than 10000 nM. As for `Cc1cc(-c2cc3nc(-n4ccc(-c5ccccc5)n4)nc(N4CCOCC4)c3o2)sn1` [Compound 211, 6-(3-methylisothiazol-5-yl)-4-morpholino-2-(3-phenylpyrazol-1-yl)furo[3,2-d]pyrimidine], the figure is 20.8 nM; as for `c1ccc(-c2coc(Nc3nc(N4CCOCC4)c4oc(-c5ccncc5)cc4n3)n2)cc1` [Compound 45, 4-morpholino-N-(4-phenyloxazol-2-yl)-6-(4-pyridyl)furo[3,2-d]pyrimidin-2-amine, hydrogen chloride], 48 nM. Take `CCNC(=O)c1cc2nc(-n3cc(-c4cccc(C)c4)cn3)nc(N3CCOCC3=O)c2o1` [Compound 149, N-ethyl-2-[4-(m-tolyl)pyrazol-1-yl]-4-(3-oxomorpholin-4-yl)furo[3,2-d]pyrimidine-6-carboxamide]: the concentration for half-maximal inhibition (IC50) was greater than 20000 nM. Under `c1cc(-c2cc(Nc3nc(N4CCOCC4)c4occc4n3)[nH]n2)ccn1` [Compound 10, 4-morpholino-N-(3-(pyridin-4-yl)-1H-pyrazol-5-yl)furo[3,2-d]pyrimidin-2-amine hydrochloride] stands 6220 nM. Under `CN1CCC(c2cc3nc(Nc4cc(-c5ccccc5)n[nH]4)nc(N4CCOCC4)c3o2)C1` (centres unmarked) [Compound 38] stands 131 nM; under `O=C(NC1CC1)c1cc2nc(-n3cc(-c4ccccc4)cn3)nc(N3CCOCC3)c2o1` [Compound 165, N-cyclopropyl-4-morpholino-2-(4-phenylpyrazol-1-yl)furo[3,2-d]pyrimidine-6-carboxamide], 68.4 nM. As for `Cc1cccc(-c2ccn(-c3nc(N4CCOCC4)c4oc(-c5ccn(C)n5)cc4n3)n2)c1` [Compound 189, 6-(1-methylpyrazol-3-yl)-4-morpholino-2-[3-(m-tolyl)pyrazol-1-yl]furo[3,2-d]pyrimidine], the figure is 0.8 nM; as for `Cc1ccnc(-c2cc(Nc3nc(N4CCOCC4)c4oc(-c5ccncc5)cc4n3)[nH]n2)c1` [Compound 21, N-[5-(4-methyl-2-pyridyl)-1H-pyrazol-3-yl]-4-morpholino-6-(4-pyridyl)fnro[3,2-d]pyrimidin-2-amine, hydrogen chloride], 27 nM.
